Data taken from PubChem BioAssay (NCI).
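In this assay, cells in 96-well plates receive the compound at five concentrations for 48 hours. Endpoints are linearly interpolated between the surrounding concentrations. GI50: concentration for 50% inhibition of growth. At the TGI there is no net growth.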

How the values were obtained:
Assay in all cases: NCI tumour cell line growth inhibition, 48 h
[1] = system: 786-0 renal
[2] = system: DU-145 prostate
[3] = system: HCT-116 colon
[4] = system: NCI-H522 lung
[5] = system: NCI/ADR-RES ovarian
[6] = system: RXF 393 renal
[7] = system: SK-MEL-5 melanoma
[8] = system: SN12C renal
[9] = system: TK-10 renal
[10] = system: U251 CNS

Structure (SMILES) | GI50 [1] [µM] | TGI [1] [µM] | GI50 [2] [µM] | TGI [2] [µM] | GI50 [3] [µM] | TGI [3] [µM] | GI50 [4] [µM] | TGI [4] [µM] | GI50 [5] [µM] | TGI [5] [µM] | GI50 [6] [µM] | TGI [6] [µM] | GI50 [7] [µM] | TGI [7] [µM] | GI50 [8] [µM] | TGI [8] [µM] | GI50 [9] [µM] | TGI [9] [µM] | GI50 [10] [µM] | TGI [10] [µM]
OC(c1cc(C(F)(F)F)nc2c(C(F)(F)F)cccc12)C1CCCCN1 (stereo not given) | 1.88 | 3.77 | 2.76 | 6.16 | 1.79 | 3.22 | 1.65 | 3.2 | 2.31 | 5.95 | 1.71 | 4.53 | 1.68 | 3.07 | 1.78 | 3.71 | 1.8 | 3.43 | 1.79 | 4.25
c1ccc(Nc2ncc(-c3ccccc3)o2)cc1 | > 25 | > 25 | > 25 | > 25 | 24.5 | > 25 | > 25 | > 25 | > 25 | > 25 | > 19.7 | > 25 | > 25 | > 25 | > 25 | > 25 | > 25 | > 25 | > 25 | > 25
CCCCCCCCCCSC(=N)N (tested in a mixture with another compound) | 1.91 | 4.54 | 4.47 | 16.1 | 2.6 | 9.55 | 1.91 | 4.68 | 6.29 | 25.6 | 2.55 | 7.23 | 2.83 | 8.55 | 6.28 | 21.6 | 1.95 | 4.19 | 1.77 | 3.62
COc1ccc(Cn2c(Br)c3c(c2Br)-c2nc(N)sc2CC3)cc1 | 5.02 | 28.6 | 6.13 | 39.6 | 2.89 | 11.2 | 1.59 | 3.04 | 4.85 | 53.5 | 1.97 | 5.05 | 4.83 | 18.7 | 5.47 | 21 | 3.69 | 12.7 | 5.15 | 19
C=C1C(=O)O[C@H]2[C@H]1CC/C(CNC(=O)c1cc3ccccc3[nH]1)=C\CC[C@@]1(C)O[C@@H]21 | 1.69 | 3.43 | 0.575 | 1.87 | 1 | 2.21 | 1.57 | 3.31 | 3.08 | 12.3 | 1.01 | 2.52 | 1.72 | 3.65 | 1.79 | 4.85 | 1.48 | 3.23 | 1.68 | 3.26
c1ccc(-c2n(Cc3ccc4ccccc4n3)cc[n+]2Cc2ccc3ccccc3c2)cc1 | 2.24 | 6.12 | 2.7 | 11.3 | 1.24 | 3.37 | 0.706 | 3.42 | 19.5 | 66.8 | 1.34 | 3.38 | 0.538 | 1.55 | 1.44 | 4.36 | 1.61 | 4.11 | 0.923 | 3.25
COc1cc2c(cc1OC)-c1cc(OC)c(OC)cc1C(CN(C)C)C2 (stereo not given) | > 10 | > 10 | > 10 | > 10 | > 10 | > 10 | > 10 | > 10 | > 10 | > 10 | > 10 | > 10 | > 10 | > 10 | > 10 | > 10 | > 10 | > 10 | > 10 | > 10
COc1ccc2ncnc(Nc3ccc(OCc4ccccc4)cc3)c2c1 | 4.76 | 10.9 | 8.2 | > 25 | 8.35 | > 25 | 4.95 | > 17.1 | 7.56 | > 25 | 4.59 | 10.2 | 4.62 | 11.8 | 9.14 | > 25 | 3.68 | 18.4 | 8.54 | > 25
CC(=O)OCc1ccc2c(c1)C(O)NC(=O)O2 (stereo not given) |  | > 100 |  | > 100 |  | > 100 |  | > 100 |  | > 100 |  | > 100 |  | > 100 |  | > 100 |  | > 100 |  | > 100
COC(=O)c1cc2oc(/C=C3/SC(=S)N(NC(C)=O)C3=O)cc2n1C | 20.1 | 42.6 | 8.76 | 25.4 | 12.1 | 31.1 | 16.4 | 55.4 | 15.3 | 51.4 | 36.5 | 87.7 | 12.6 | 26.2 | 21.9 | 60.5 | 26 | 97.4 | 16 | 45
NC(=S)N/N=C\c1nccc2c(C(F)(F)F)cccc12 | 0.3 | 0.957 | 0.292 | > 39.3 | 0.298 | 4.26 | 0.269 | 0.805 | 0.349 | 20.4 | 0.251 | 2.53 | 0.183 | 0.921 | 0.31 | 12.4 | 0.516 | 32.1 | 0.224 | 8.4
COc1c2ccccc2c(OC)c2[nH]c(=O)ccc12 | 56.1 | > 100 | 1.54 | 3.32 | 4.98 | > 100 | 7.73 | > 100 | 6.51 | > 100 | 16.3 | > 100 | 0.847 | 2.19 | 2.13 | > 21.2 | 51.2 | > 100 | 4 | > 69
COC1=CC(=O)C(C2(OC(C)C)OC(=O)C(Cl)=C2Cl)=CC1=O (stereo not given) |  | 86.4 |  | > 100 |  | > 100 |  | 96 |  | > 100 |  | > 100 |  | > 100 |  | > 100 |  | > 100 |  | 
Cc1ccc(NC2=C3CCCCC3OC2=O)cc1 (stereo not given) | > 100 | > 100 | 88.8 | > 100 | 66.1 | > 100 | 29 | > 100 | > 100 | > 100 | > 100 | > 100 | 34.9 | > 100 | 93 | > 100 | > 100 | > 100 |  | 
O=C(Nc1cccc(C(F)(F)F)c1)Nc1cccc(C(F)(F)F)c1 | 1.56 | 4.14 | 0.92 | 12.4 | 0.462 | 2.76 | 1.2 | 4.32 | 0.651 | 4.84 | 1.49 | 4.35 | 1.28 | 2.55 | 0.923 | 5.24 | 1.3 | 7.2 | 0.509 | 3.14
CC(=C(c1ccc(OCCN2CCCCC2)cc1)c1ccc(OCCN2CCCCC2)cc1)c1ccc(Cl)cc1 | 0.419 | 0.805 | 0.458 | 0.87 | 0.39 | 0.743 | 0.411 | 0.872 | 0.446 | 0.858 | 0.375 | 0.743 | 0.443 | 0.793 | 0.414 | 0.785 | 0.384 | 0.755 | 0.387 | 0.747
COc1ccc(C(c2cc(OC)c(OC)c(OC)c2)n2cncn2)cc1O (stereo not given) | 0.474 | > 100 | 0.531 | > 100 | 0.448 | > 100 | 0.395 | 2.37 | 1.18 | > 100 | 0.321 | > 100 | 0.44 | 38.3 | 0.853 | > 100 | > 100 | > 100 | 0.446 | > 100
O=C1NC(=NCc2ccccc2)S/C1=C\c1ccc2ncccc2c1 | > 25 | > 25 | > 25 | > 25 | > 20.7 | > 25 | > 15.5 | > 25 | > 25 | > 25 | > 25 | > 25 | > 25 | > 25 | > 25 | > 25 | > 25 | > 25 | > 25 | > 25
COC(=O)[C@]12CC[C@@H](C)[C@H](C)[C@@H]1C1=CC[C@@H]3[C@@]4(C)C[C@@H](O)[C@H](O)[C@@](C)(CO)[C@@H]4[C@H](O)C[C@@]3(C)[C@]1(C)CC2 | 11.5 | 31.6 | 16.4 | 31.8 | 11.1 | 26.4 | 20.9 | 43.3 | 15.5 | 35.1 | 9.32 | 23.1 | 15.3 | 28.9 | 14.5 | 30.6 | 16.8 | 31.5 | 17.2 | 40.9
C=C(C)C(=O)O[C@@H]1C[C@@]2(C)O[C@@H]2C[C@H](O)/C(C)=C/[C@H]2OC(=O)C(=C)[C@@H]21 |  | > 100 |  | > 100 |  | > 100 |  | 31.6 |  | > 100 |  | > 100 |  | > 100 |  | > 100 |  | > 100 |  | > 100
Nc1nc2[nH]cc(CCc3ccc(C(=O)N[C@@H](CCC(=O)O)C(=O)O)cc3)c2c(=O)[nH]1 | 0.0611 | > 100 |  | > 100 | 0.127 | > 100 |  | > 100 | > 100 | > 100 |  | > 100 |  | > 100 | 0.737 | > 100 |  | > 100 | 14.6 | > 100
COc1cc(-c2nn(-c3cccc(NC(=O)c4ccccc4)c3)cc2-c2ccncc2)ccc1Cl | 1.1 | > 100 | 0.626 | 27.1 | 0.421 | > 100 | 0.238 |  | 0.36 | > 100 | 0.545 | > 25.2 | 0.259 | 0.945 | 1.45 | > 100 | 4.12 | > 83.8 | 0.592 | 24.4
CC#Cc1ccc(-c2ccccc2)s1 |  | > 100 |  | > 100 |  | > 100 |  | > 100 |  | > 100 |  | > 100 |  | > 100 |  | > 100 |  | > 100 |  | > 100
Fc1cc(-c2nnc3n2N=C(c2ccc(Cl)cc2)CS3)c(Cl)cc1Cl | 2.08 | 3.55 | 6.47 | 17.1 | 2.36 | 5.85 | 2.79 |  | 9.29 | 36.8 | 5.57 | 14.7 | 3.91 | 15 | 3.85 | 16.8 | 3.09 | 11.2 | 11.4 | 28.4
CN1CCN(c2ccc(Nc3ncc(Cl)c(NC[C@@H]4CCCO4)n3)cc2)CC1 | 1.68 | 15.1 | 1.96 | > 100 |  |  | 1.52 | 10.9 | 3.15 | > 100 | 0.746 | 3.42 | 2.52 | 13.6 | 1.13 | > 100 | 1.75 | 8.39 | 2 | 49.1
CC(=O)Nc1cc2ccc(=O)oc2cc1Cl |  | > 100 |  | > 100 |  | > 100 |  | > 100 |  | > 100 |  | > 100 |  | > 100 |  | > 100 |  |  |  | > 100
Cc1cc2c(cc1C)[n+](=O)c(C(=O)c1ccccc1)c(C(F)F)n2[O-] | 32 | > 100 | 10.5 | 46.4 | 30.8 | > 100 | 7.82 | 27.2 | 36.3 | > 100 |  |  | 9.3 | 25 | 25.7 | > 100 | 38 | > 100 | 12.7 | > 100
